pIC50: −log10 of the molar value. Calls of active or inactive are those of the source. The calls are words filed in the database; no cut-off is given here.

The target in assay [1] is T1, Glutamine synthetase (Oryza sativa, UniProt Q01HZ7).
T1 sequence (Q01HZ7 whole entry): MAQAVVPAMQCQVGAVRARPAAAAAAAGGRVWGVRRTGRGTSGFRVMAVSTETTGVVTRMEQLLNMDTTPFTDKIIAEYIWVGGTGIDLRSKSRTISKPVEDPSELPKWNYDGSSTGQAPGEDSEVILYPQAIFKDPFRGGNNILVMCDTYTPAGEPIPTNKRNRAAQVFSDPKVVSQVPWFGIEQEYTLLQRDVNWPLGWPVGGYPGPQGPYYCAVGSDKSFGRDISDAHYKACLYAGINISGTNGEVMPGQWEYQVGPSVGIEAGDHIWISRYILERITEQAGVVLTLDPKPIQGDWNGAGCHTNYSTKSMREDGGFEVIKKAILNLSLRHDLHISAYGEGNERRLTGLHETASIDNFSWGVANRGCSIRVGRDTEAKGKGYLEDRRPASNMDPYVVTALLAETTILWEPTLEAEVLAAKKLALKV
The experiment in a line: (§1) Inhibition of Oryza sativa cv. Gigante vercellese (rice) glutamine synthetase after 30 min by hemibiosynthetic assay. The settings on record: read-out: I50.

Assay [2] concerns the target T2, Glutamine synthetase (Oryza sativa) (UniProt Q01HZ7).
T2 sequence (whole entry): T1 sequence (Q01HZ7 whole entry)
The experiment in a line: Inhibition of Oryza sativa cv. Gigante vercellese (rice) glutamine synthetase at 1 mM after 30 min by hemibiosynthetic assay. To be noted: values are per cent of control.

Assay [3] concerns the target T2, Glutamine synthetase (Oryza sativa). The experiment in a line: Inhibition of Oryza sativa cv. Gigante vercellese (rice) glutamine synthetase assessed as inhibition of glutamine synthesis from glutamic acid at 1 mM after 15 min by biosynthetic assay. To be noted: values are per cent of control.
The target of assay [4] is T1, Glutamine synthetase. The assay is described as follows: (§2) Inhibition of Oryza sativa cv. Gigante vercellese (rice) glutamine synthetase by transferase assay. To be noted: read-out: I50.
Assay [5] concerns the target T1, Glutamine synthetase. The assay is described as follows: Inhibition of Oryza sativa cv. Gigante vercellese (rice) glutamine synthetase assessed as inhibition of glutamine synthesis from glutamic acid after 15 min by biosynthetic assay. The settings on record: read-out: I50.
The target in assay [6] is T2, Glutamine synthetase (Oryza sativa). The assay is described as follows: Inhibition of Oryza sativa cv. Gigante vercellese (rice) glutamine synthetase at 1 mM by transferase assay. To be noted: values are per cent of control.
Assay [7] shares this target. Described as §1.
For assay [8] the target is unchanged. Described as §2.
Assay [9] has as its system Oryza sativa. The assay is described as follows: Effect on amino acid pool in Oryza sativa cv. Gigante vercellese (rice) cells assessed as asparagine content per gram freshweight of culture at 0.5 mM after 48 hr (reference value: 3.18 +/- 0.25 umol). In kind it is functional.
Assay [10] deals with Oryza sativa. The assay is described as follows: Effect on amino acid pool in Oryza sativa cv. Gigante vercellese (rice) cells assessed as total amino acid content per gram fresh weight of culture at 0.5 mM after 48 hr (reference value: 24.65 +/- 0.97 umol). In kind it is functional.
Assay [11] concerns Oryza sativa. The experiment in a line: Effect on amino acid pool in Oryza sativa cv. Gigante vercellese (rice) cells assessed as aspartic acid content per gram freshweight of culture at 0.5 mM after 48 hr (reference value: 1.10 +/- 0.26 umol). In kind it is functional.
The subject of assay [12] is Oryza sativa. The experiment in a line: Effect on amino acid pool in Oryza sativa cv. Gigante vercellese (rice) cells assessed as serine content per gram freshweight of culture at 0.5 mM after 48 hr (reference value: 0.60 +/- 0.09 umol). In kind it is functional.
In assay [13] the test system is Oryza sativa. The assay is described as follows: Effect on amino acid pool in Oryza sativa cv. Gigante vercellese (rice) cells assessed as glutamic acid content per gram freshweight of culture at 0.5 mM after 48 hr (reference value: 0.75 +/- 0.07 umol). In kind it is functional.
Assay [14] relates to Oryza sativa. The assay is described as follows: Effect on amino acid pool in Oryza sativa cv. Gigante vercellese (rice) cells assessed as glutamine content per gram fresh weight of culture at 0.5 mM after 48 hr (reference value: 4.24 +/- 0.35 umol). In kind it is functional.
The target in assay [15] is T2, Glutamine synthetase (Oryza sativa). The experiment in a line: Reversible inhibition of Oryza sativa cv. Gigante vercellese (rice) glutamine synthetase assessed as inhibition of glutamine synthesis from glutamic acid at 10 uM after 50 min by biosynthetic assay.
Assay [16] has the same target. The assay is described as follows: Reversible inhibition of Oryza sativa cv. Gigante vercellese (rice) glutamine synthetase assessed as inhibition of glutamine synthesis from glutamic acid at 20 uM after 50 min by biosynthetic assay.

The term residual activity denotes the signal under treatment as a percentage of the control signal. Regarding `O=P(O)(O)C(Nc1ccc(Cl)cn1)P(=O)(O)O`, the pIC50 was 4.02 in [1], 2.98 in [4] and 4.16 in assay [5]. The residual activity is 17.5% in [2], 13.9% in assay [3] and 52.8% in assay [6].
As for `O=C(O)c1cccc(NC(P(=O)(O)O)P(=O)(O)O)c1` [3-(DIPHOSPHONOMETHYLAMINO)BENZOIC ACID], the I50 result in assay [7] and in assay [8] was “inactive” each time. The residual activity worked out at 99% in [2], 62.5% in assay [3] and 104% in [6]. In addition, the pIC50 in assay [5] is 2.74.
`O=P(O)(O)C(Nc1ccncc1)P(=O)(O)O`: the Activity in assay [9] was found to be 1.14 umol/g fresh weight; in [10], 32.64 umol/g fresh weight; in assay [11], 1.21 umol/g fresh weight; in assay [12], 2.22 umol/g fresh weight; in assay [13] it was 4.24 µmol/g fresh weight; in assay [14], 4.79 umol/g fresh weight. The residual activity in assay [2] is 97.2%; in assay [3], 119%; in assay [6], 84.9%.
With `O=P(O)(O)C(Nc1ncccn1)P(=O)(O)O`, the results for the residual activity in [2], in assay [3] and in [6] were 64.3%, 42.3% and 76.8%, respectively.
As for `Cc1cccc(NC(P(=O)(O)O)P(=O)(O)O)n1`, the residual activity in [2] is 74.4%; in [3] it was 114%; in assay [6] it was 25.9%.
Regarding `O=P(O)(O)C(Nc1ccccn1)P(=O)(O)O`, the pIC50 in [1] was 3.67; in assay [4], 2.98; in assay [5] it was 3.61. Further, the figures for the residual activity in assay [2], in assay [3] and in assay [6] were 30.2%, 37.6% and 60.1%, respectively.
As to `O=C(O)c1cccnc1NC(P(=O)(O)O)P(=O)(O)O` [2-(DIPHOSPHONOMETHYLAMINO)NICOTINIC ACID], the pIC50 in [1] was 3.20; in [4], 5.84; in assay [5], 3.48. The residual activity turned out to be 40.8% in assay [2], 27.2% in assay [3] and 61% in [6].
Consider `O=[N+]([O-])c1cccc(NC(P(=O)(O)O)P(=O)(O)O)c1` [(3-NITROPHENYLAMINO)METHYLENEDIPHOSPHONIC ACID], for which the pIC50 in assay [1] was 2.79; in assay [4] it was 5.70; in assay [5], 3.13. The residual activity in [2] came to 101%; in [3], 97.6%; in assay [6] it was 95.6%.
As for `O=P(O)(O)C(NCc1ccccc1)P(=O)(O)O`, the residual activity in assay [2] worked out at 89.1%; in [3], 109%; in assay [6], 102%.
As to `O=P(O)(O)C(Nc1ccccc1)P(=O)(O)O`, the residual activity in [2] amounted to 92%; in [3], 108%; in assay [6], 44.3%.
As to `O=P(O)(O)C(NC1CCCCC1)P(=O)(O)O` [(CYCLOHEXYLAMINO)METHYLENEDIPHOSPHONIC ACID], the figures for the pIC50 in assay [1], in assay [4] and in assay [5] were 3.34, 3.04 and 2.95, respectively. The residual activity turned out to be 32.7% in assay [2], 50.5% in assay [3] and 46.1% in assay [6].
On to `Cc1ccccc1CNC(P(=O)(O)O)P(=O)(O)O`, for which the residual activity in [2] was determined as 70.5%; in assay [3], 101%; in assay [6] it was 50.8%.
Regarding `Cc1ccc(NC(P(=O)(O)O)P(=O)(O)O)cc1` [(P-TOLYLAMINO)METHYLENEDIPHOSPHONIC ACID], the Activity in assay [9] amounted to 0.61 umol/g fresh weight; in [10] it was 22.91 umol/g fresh weight; in [11], 0.76 umol/g fresh weight; in assay [12], 0.6 umol/g fresh weight; in assay [13] it was 2.97 µmol/g fresh weight; in [14] it was 2.95 umol/g fresh weight. The figures for the pIC50 in [1] and in assay [5] were 3.11 and 3.77, respectively. The residual activity in assay [2] is 57.6%; in assay [3], 14.3%; in assay [6], 93.8%. Also, the I50 entry in [8] is “inactive”.
`NC(P(=O)(O)O)P(=O)(O)O`: the residual activity in assay [2] came to 81.2%; in assay [3], 119%; in assay [6] it was 96.4%.
For `O=P(O)(O)C(NCc1ccccn1)P(=O)(O)O`, the Activity in assay [9] is recorded as 0.63 umol/g fresh weight; in assay [10], 26.94 umol/g fresh weight; in [11] it was 1.66 umol/g fresh weight; in [12] it was 1.53 umol/g fresh weight; in assay [13], 4.78 µmol/g fresh weight; in assay [14] it was 3.25 umol/g fresh weight. In addition, the values for the pIC50 in assay [1], in [4] and in assay [5] were 3.99, 2.95 and 4.19, respectively. Further, the residual activity came to 16.1% in assay [2], 8.8% in assay [3] and 54.6% in assay [6].
Turning to `CP(=O)(O)CC[C@H](N)C(=O)O` [PHOSPHINOTHRICIN], the inhibition entry in assay [15] is “inactive”. Moreover, the pIC50 in [1] was 4.31; in assay [4], 3.76; in assay [5], 4.36. Besides, the residual activity in [2] was 9.9%; in assay [3], 2%; in assay [6], 25.7%.
Consider `O=P(O)(O)C(NCCc1ccc(O)cc1)P(=O)(O)O` [(4-HYDROXYPHENETHYLAMINO)METHYLENEDIPHOSPHONIC ACID], for which the pIC50 in assay [1] was 3.16; in assay [5], 2.35. The residual activity in assay [2] was determined as 36.9%; in assay [3] it was 72.6%; in assay [6] it was 98.4%. For the same compound, the I50 entry in assay [8] was “inactive”.
In the case of `O=P(O)(O)C(Nc1cc(Cl)cc(Cl)c1)P(=O)(O)O` [(3,5-DICHLOROPHENYLAMINO)METHYLENEDIPHOSPHONIC ACID], the Activity in assay [9] is given as 0.49 umol/g fresh weight; in assay [10] it was 28.61 umol/g fresh weight; in [11], 0.57 umol/g fresh weight; in assay [12], 1.26 umol/g fresh weight; in assay [13], 3.19 µmol/g fresh weight; in [14], 2.72 umol/g fresh weight. Further, the pIC50 in assay [1] was 4.06; in assay [4] it was 6.40; in assay [5], 4.48. In addition, the residual activity in assay [2] was determined as 13.1%; in [3], 3.1%; in [6], 38.1%. In addition, the inhibition entry in assay [16] is “Active”.

These data come from ChEMBL document CHEMBL3046691, “Herbicidal pyridyl derivatives of aminomethylene-bisphosphonic acid inhibit plant glutamine synthetase” (J Agric Food Chem, 2004).
